Measured values published in paper PMC12730265, “Combinatorial Antimicrobial Effects of Imidazolium-Based Ionic Liquids and Antifungals on Model Fungal Organisms” (Biomolecules, 2025).
Like-named read-outs stand apart in the source and are kept apart here.

Experiments:
Type in all cases: cell-based
[1] = test system: S. cerevisiae; assay: Kirby–Bauer disk diffusion assay on IL-containing YPD plates; settings: for Zone of inhibition (ZOI) diameter: 100 = no growth on plate
Experimental: Assessment of fungal growth on YPD plates with AFs + ILs served as an indicator for the combined efficacy of treatment of ILs and AFs. YPD agar plates were made with addition of increasing concentrations of [HMIM]Cl at 0, 2.5, 6.25, and 25 mM or [OMIM]Cl at 0, 0.25, 0.625, and 2.5 mM. Plates solidified and dried on bench for 24 h before use. IN total, 400 μL of S. cerevisiae or C. albicans liquid culture at mid-log phase OD600 0.5 was spread using sterile glass beads to achieve even distribution. Following addition of culture, the plates were allowed to dry for 30 min before the addition of antifungal disks. Antifungal-infused disks were prepared using the stock solutions of solubilized antibiotics; 15 μL of each of the 4 azole antifungals at stock concentrations was pipetted onto a sterile 6 mm cellulose disk (BD). […] After plate drying was complete, sterile forceps were used to transfer the disks to the media, and the plate was grown upright in an incubator overnight at 30 °C. The following day, photographs were taken of the plates to visualize the zone of inhibition (ZOI) created by the combined treatment. Adobe Illustrator 2023 CC was used to perform digital measurements of ZOI diameters.
To assess the potential for combinatorial effects of ILs and AFs in yeast, Kirby–Bauer disk diffusion assays were performed for C. albicans and S. cerevisiae for [HMIM]Cl and [OMIM]Cl with all four AFs. […] The addition of 6 mm cellulose disks infused with equal volumes of solubilized AFs to the plates occurred after plating of C. albicans or S. cerevisiae, allowing for growth for 48 h at 23 °C, at which point the plates were evaluated for the establishment of zones of inhibition (ZOI). Digital pictures were acquired of all plates, and measurements of ZOI diameter were performed digitally as described in the Methods. […] With progressively increasing amounts of both [HMIM]Cl and [OMIM]Cl, ZOIs increased for all Afs, including Fluconazole and Itraconazole, which appear to be ineffective without IL in the Kirby–Bauer disk assay. Experiments were performed in triplicate and ZOIs were measured for all plates.
Similar experiments testing the combinatorial effects of [HMIM]Cl or [OMIM]Cl were performed on S. cerevisiae using Kirby–Bauer disk assays and quantified for changes in ZOI (Appendix Figure A1). ZOI measurements (mm) from both C. albicans and S. cerevisiae were compiled, and the averages are shown numerically as well as with shading and plotted in Figure 3. […] Finally, at intermediate concentrations of both [HMIM]Cl and [OMIM]Cl, a combinatorial effect of IL + AF was evident for all four AFs in S. cerevisiae, similar to observations in C. albicans.

[2] = test system: C. albicans; assay: Checkerboard assay IL + Clotrimazole, growth on YPD plate post-treatment (fungicidal); settings: for average growth, visually scored (2 full, 1 interrupted, 0 no growth): [HMIM]Cl 0 mM
Experimental: C. albicans was grown overnight in YPD liquid media at 30 °C, at which point it was diluted into 10 mL of YPD media at 0.1 OD600 and was grown to mid-log phase 0.5 OD600 and subsequently diluted to 5 × 10^3 CFU/mL cells in YPD of which 180 μL of culture was distributed into a 96-well round-bottom culture dish. To this dish, 20 μL of IL, AF, or IL + AF was added to each well at concentrations indicated in each experiment. These culture plates were grown in an incubator shaker for 48 h at 30 °C, at which point the cultures were mixed by pipetting and then spotted onto YPD solid plates and allowed to grow for an additional 48 h. After 48 h, plates were visually scored for no growth (0), 50% growth (1), or 100% growth relative to PBS control (2). Experiments were performed in triplicate, and scores were averaged per well.
In order to evaluate if the same combinatorial effect was present in liquid culture and furthermore to identify the specific concentrations at which a combined effect may be present, checkerboard assays were performed. […] These assays were completed in triplicate for both [HMIM]Cl and [OMIM]Cl with the addition of Clotrimazole on C. albicans. In this assay, both IL and AF were loaded into a 96-well plate YPD liquid culture plate in double serial dilutions with decreasing IL from top to bottom and decreasing AF from left to right. Each well represents a different final concentration of both drugs in combination. Growth of the target microorganism was measured as growth in liquid media by OD600 nm, representing fungistatic interactions and [2] growth on a YPD plate post-treatment as fungicidal (Figure 4).
Checkerboard assays were performed in 96-well plates with Clotrimazole + [HMIM]Cl or [OMIM]Cl on C. albicans. These culture plates were grown in an incubator shaker for 48 h at 23 °C, and thereafter C. albicans was mixed by pipetting and then spotted onto YPD solid plates and allowed to grow for an additional 48 h. After 48 h, plates were visually scored for no growth (0), 50% growth (1), or 100% growth relative to PBS control (2). Experiments were performed in triplicate, and scores were averaged per well. […] We measured this by calculating the fractional inhibitory concentration (FIC) score ((MIC50 IL + AF)/(MIC50 AF)) + ((MIC50 IL + AF)/(MIC50 IL)). In this well-established measure of combined interactions, a score < 0.5 indicated synergistic interaction, 0.5–4 potential combinatorial interaction or no effect, and >4 antagonistic interaction.

[3] = test system: C. albicans; assay: MIC50 by microbroth dilution; settings: Candida albicans, 48 h
Experimental: (§1) A single colony was picked from each streak to prepare overnight in 5 mL fresh YPD broth and placed into a tilted rotating incubator set at 30 °C and 40 rpm overnight. After ~16–20 h, a fresh dilution in media (1:200) was made and used for the experiment. […] Finally, diluted culture was added to each well of a sterile 96-well plate containing serially diluted aliquots of each RTIL to a total volume of 100 µL. The plate was incubated at 30 °C overnight with shaking for 24 and 48 h. At both timepoints, the yeast was manually resuspended in the plate by pipetting and we measured the OD600 using a Spectramax M5 multimode plate reader (Molecular Devices, San Jose, CA, USA).
(§2) The four species of yeast tested included three common lab strains of non-pathogenic yeast strains, S. boulardii, S. cerevisiae, and S. pombe, and one common human pathogen, C. albicans.

[4] = test system: S. boulardii; assay: MIC50 by microbroth dilution; settings: Saccharomyces cerevisiae
Experimental: as §1, §2

[5] = test system: S. pombe; assay: MIC50 by microbroth dilution; settings: Schizosaccharomyces pombe
Experimental: as §1, §2

[6] = test system: S. cerevisiae; assay: MIC50 by microbroth dilution; settings: Saccharomyces cerevisiae
Experimental: as §1, §2

[7] = 50% growth after 48 h in YPD media, OD600, read-out: MIC50
[8] = in combination with Clotrimazole 4 mg/L

Clc1ccccc1C(c1ccccc1)(c1ccccc1)n1ccnc1 [Clotrimazole]
Zone of inhibition (ZOI) diameter ([1]; [HMIM]Cl 0 mM in plate): 21.67 mm
Zone of inhibition (ZOI) diameter ([1]; [HMIM]Cl 2.5 mM in plate): 26.67 mm
Zone of inhibition (ZOI) diameter ([1]; [HMIM]Cl 6.25 mM in plate): 50.33 mm
Zone of inhibition (ZOI) diameter ([1]; [HMIM]Cl 25 mM in plate): 100 mm
Zone of inhibition (ZOI) diameter ([1]; [OMIM]Cl 0 M in plate): 21.67 mm
Zone of inhibition (ZOI) diameter ([1]; [OMIM]Cl 0.25 mM in plate): 30 mm
Zone of inhibition (ZOI) diameter ([1]; [OMIM]Cl 0.625 mM in plate): 47.33 mm
Zone of inhibition (ZOI) diameter ([1]; [OMIM]Cl 2.5 mM in plate): 100 mm
average growth, visually scored (2 full, 1 interrupted, 0 no growth) ([2]; Clotrimazole 0.1 mg/L): 2
average growth, visually scored (2 full, 1 interrupted, 0 no growth) ([2]; Clotrimazole 0.25 mg/L): 2
average growth, visually scored (2 full, 1 interrupted, 0 no growth) ([2]; Clotrimazole 0.5 mg/L): 2
average growth, visually scored (2 full, 1 interrupted, 0 no growth) ([2]; Clotrimazole 1 mg/L): 2
average growth, visually scored (2 full, 1 interrupted, 0 no growth) ([2]; Clotrimazole 2 mg/L): 1.67
average growth, visually scored (2 full, 1 interrupted, 0 no growth) ([2]; Clotrimazole 4 mg/L): 1.33
average growth, visually scored (2 full, 1 interrupted, 0 no growth) ([2]; Clotrimazole 8 mg/L): 1
average growth, visually scored (2 full, 1 interrupted, 0 no growth) ([2]; Clotrimazole 15 mg/L): 1
average growth, visually scored (2 full, 1 interrupted, 0 no growth) ([2]; Clotrimazole 31 mg/L): 1
average growth, visually scored (2 full, 1 interrupted, 0 no growth) ([2]; Clotrimazole 62 mg/L): 0.67
average growth, visually scored (2 full, 1 interrupted, 0 no growth) ([2]; Clotrimazole 125 mg/L): 0.67
average growth, visually scored (2 full, 1 interrupted, 0 no growth) ([2]; Clotrimazole 250 mg/L): 0.33
Clotrimazole concentration at 50% growth ([2]; with 0.39 mM [OMIM]Cl): 4 mg/L
Clotrimazole concentration at 50% growth ([2]; with 1.562 mM [HMIM]Cl): 4 mg/L
MIC50 [3, 7]: 1 mg/L
MIC50 [4, 7]: 1 mg/L
MIC50 [5, 7]: 1 mg/L
MIC50 [6, 7]: 1 mg/L

CCCCCCn1cc[n+](C)c1.[Cl-] [[HMIM]Cl, 1-hexyl-3-methylimidazolium chloride]
growth of S. cerevisiae on IL plate ([1]; plates with 25 mM [HMIM]Cl): complete inability to grow
IL concentration at 50% growth (MIC50 used for FIC) ([2]; IL alone, fungicidal checkerboard): 6.25 mM
antifungal effect of IL without Clotrimazole ([2]; [HMIM]Cl 12.5 mM): not completely fungicidal
IL concentration at 50% growth (MIC50 used for FIC) [2, 8]: 1.562 mM
MIC50 [3]: 25 mM
MIC50 ([4]; 48 h): 6.25 mM
MIC50 ([5]; 48 h): 6.25 mM
MIC50 ([6]; 48 h): 6.25 mM

CCCCCCCCn1cc[n+](C)c1.[Cl-] [[OMIM]Cl, 1-octyl-3-methylimidazolium chloride]
growth of S. cerevisiae on IL plate ([1]; plates with 2.5 mM [OMIM]Cl): complete inability to grow
antifungal effect of IL without Clotrimazole ([2]; [OMIM]Cl 6.25 mM): not completely fungicidal
IL concentration at 50% growth (MIC50 used for FIC) [2, 8]: 0.39 mM
MIC50 [3, 7]: 3.12 mM
MIC50 [4, 7]: 0.625 mM
MIC50 [5, 7]: 1.25 mM
MIC50 [6, 7]: 0.625 mM
